target: T1, Cloned Human Dopamine D3 Receptors (Homo sapiens, UniProt P35462); assay: [N-Methyl-3H]Spiroperidol binding to cloned human dopamine D3 receptors; details: D3 Ki (nM)
T1 construct: expressed in transfected cells; membrane homogenate
Description: [N-Methyl-^3H]Spiroperidol Binding to Cloned Human Dopamine D3 Receptors
This assay measures the in vitro activity of compounds on cloned human dopamine (D3) receptors and predicts the direct dopamine-blocking properties of putative neuropsychiatric agents at human dopamine D3 receptors.
The D3 gene was isolated from a human striatal cDNA library (Stratagene). The gene was sequenced and sub-cloned into the expression vector RC/RSV (Invitrogen). CHO (Chinese Hamster Ovary) cells were stably transfected with 10 µg of the D3/RSV plasmid using the DOTAP method from Boehringer Mannheim and 72 clones that were G418 resistant were isolated. Using mRNA and binding displacement data a single high expressing clone was identified. This clone was then grown in large batches for the purpose of developing a 96 well format assay.
• 1. One plate (10 cm) with approximately 2-3 million D3 cells per plate is incubated with 1 ml of Trypsin-EDTA at room temperature for -2 min or until cells have lifted off plates. Four ml of Ham's F12 + 10% Fetal Bovine Serum + 1% Penicillin/Streptomycin + G418 (400 µg/ml) medium are added to resuspend cells and 1 ml of this is added to each large plate (15 cm) containing 19 ml of the same medium as mentioned above. • 2. The 5 large plates are incubated at 37°C + 5% CO2 for - 3 days or until the cells are confluent. • 3. After these plates are confluent, they are split into 10 large plates. Medium is aspirated off, 2 ml of Trypsin-EDTA are added to each plate and plates are incubated at RT for 2 min or until cells have lifted off the plate. Eight ml of the F12 medium (same medium as #1 above) are added to each plate (10 ml total) to resuspend the cells and 5 ml are transferred to the 2 new plates containing 15 ml of the F12 media. • 4. The 10 large plates are incubated at 37°C + 5% CO2 for ∼ 2 days or until the cells are confluent. • 5. The 10 large plates are split into 60 large plates (using Trypsin-EDTA as #3 except 4 ml of F12 medium are added to resuspend cells and 1 ml is aliquoted to 6 new plates containing 19 ml of F12 medium each). • 6. Plates are incubated at 37°C + 5% CO2 for - 3 days or until cell are confluent. • 7. The 60 large plates are then split into 60 roller bottles (100-150 million cells/bottle). Medium is aspirated off , 2 ml of Trypsin-EDTA are added to each plate and incubated at RT for -2 minutes or until cells have lifted off plates. Eight ml of F12 medium are added to each plate to resuspend cells and the entire 10 ml are added to 1 roller bottle containing 90 ml of the F12 medium. • 8. The 60 roller bottles are immediately placed on their sides and transferred to the roller bottle incubator. They are incubated at 37°C + 5% CO2 for ~ 3-5 days. Cells are spun at 30-40% motor speed in the Forma incubator. • 9. Medium is poured off and cells are washed 2X in PBS. • 10. Cells are then scraped off in 20 ml of PBS and the bottles are rinsed again with 5 ml of PBS to remove any remaining cells. Cells are stored on ice before membrane prepration. • 11. The yield for 60 D3 roller bottles has varied from - 260-500 mg. Note: All tissue culture reagents are from Gibco-BRL.
The cells are harvested into 250 ml centrifuge tubes with 100 volumes of cold phosphate buffered saline (PBS) and spun down (1200xG for 10 min at 4°C). The medium is removed and 100 ml PBS are added to each centrifuge tube, cells are resuspened and spun down again. The PBS is removed and the final pellet is homogenized in an appropriate volume of 10% DMSO with a polytron on ice at a medium setting.
A 200 µl sample membrane homogenate is added to 200 µl of 1% SDS, vortexed and allowed to stand for 5 min. Aliquots (25, 50 and 100 µl) of this mixture are assayed in duplicate following the standard Bio-Rad DC protein assay protocol (kit catalog number 500-0112) and using reagent S. Absorbance readings are made at 750 nm (note: the most accurate protein OD readings are between 0.1-0.5 units). […]

T1 sequence (P35462 whole entry): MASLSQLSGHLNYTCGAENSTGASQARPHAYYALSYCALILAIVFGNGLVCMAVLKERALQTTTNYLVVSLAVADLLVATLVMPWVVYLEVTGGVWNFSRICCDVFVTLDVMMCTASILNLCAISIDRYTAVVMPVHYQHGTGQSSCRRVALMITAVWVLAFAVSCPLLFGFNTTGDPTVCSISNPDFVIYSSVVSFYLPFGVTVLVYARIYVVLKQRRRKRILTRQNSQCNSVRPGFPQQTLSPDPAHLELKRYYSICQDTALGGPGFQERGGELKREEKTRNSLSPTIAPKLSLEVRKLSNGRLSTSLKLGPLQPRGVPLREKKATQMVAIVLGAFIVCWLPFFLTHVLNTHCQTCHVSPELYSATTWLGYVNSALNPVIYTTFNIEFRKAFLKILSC

Row | Structure (SMILES) | Ki
1 | CN1CCCC1CCNC(=O)[C@H]1C[C@@H]1CN1CCC(c2noc3ccsc23)CC1 (single isomer, unassigned) [compound 832514] | 115 nM
2 | O=C(NC1CCN(CCc2cccc(Cl)c2)CC1)C1CC1CN1CCC(c2noc3ccsc23)CC1 (stereo not drawn) [832573FH] | 4.52 nM
3 | O=C(NCCCc1nc2ccccc2[nH]1)[C@@H]1C[C@H]1CN1CCC(c2noc3ccsc23)CC1 [832574FH] | 57.3 nM
4 | Cn1nc(C2CCN(C[C@@H]3C[C@H]3C(=O)NCCCN3CCCCC3)CC2)c2cc(C(F)(F)F)ccc21 [833585ES] | 5.86 nM
5 | CN1C2CCC1CC(NC(=O)C1CC1CN1CCC(c3nn(C)c4c(C(F)(F)F)cccc34)CC1)C2 (stereo not drawn) [A002328941] | 23.9 nM

same assay, conditions: Table 2; unit inferred; read-out: d3Ki

Row | Ki | Structure (SMILES)
6 | 35 nM | CC1CCC(NC(=O)C2CC2CN2CCN(c3ccc(C(F)(F)F)cc3)CC2)CC1 (stereo not drawn) [817039A]
7 | 18.6 nM | CCC1CCC(NC(=O)C2CC2CN2CCN(c3ccc(C(F)(F)F)cc3)CC2)CC1 (stereo not drawn) [817043A]
8 | 5.04 nM | CC[C@H]1CC[C@H](NC(=O)[C@@H]2C[C@H]2CN2CCN(c3ccc(Cl)c(Cl)c3)CC2)CC1 [817090A]
9 | 7.57 nM | CC[C@H]1CC[C@H](NC(=O)[C@@H]2C[C@H]2CN2CCN(c3cc(C)ccc3C)CC2)CC1 [817102A]
10 | 1.99 nM | Cc1ccccc1N1CCN(C[C@@H]2C[C@H]2C(=O)N[C@H]2CC[C@H](C)CC2)CC1 [817478A]
11 | 5.33 nM | CCC1CCC(NC(=O)C2CC2CN2CCN(c3ncc(C(F)(F)F)cc3Cl)CC2)CC1 (stereo not drawn) [817480A]
12 | 5.38 nM | C[C@H]1CC[C@H](NC(=O)[C@@H]2C[C@H]2CN2CCN(c3csc4cc(C(F)(F)F)ccc34)CC2)CC1 [817569A]
13 | 5.04 nM | CCC1CCC(NC(=O)C2CC2CN2CCN(c3cc(C)ccc3C)CC2)CC1 (stereo not drawn) [817570A]
14 | 11.5 nM | CCC1CCC(NC(=O)C2CC2CN2CCN(c3ccc(C)cc3C)CC2)CC1 (stereo not drawn) [817571A]
15 | 1070 nM | C[C@H]1CC[C@H](NC(=O)[C@H]2C[C@@H]2CN2CCN(c3csc4cc(C(F)(F)F)ccc34)CC2)CC1 [(+)-816589]
16 | 2.62 nM | C[C@H]1CC[C@H](NC(=O)[C@@H]2C[C@H]2CN2CCN(c3csc4cc(C(F)(F)F)ccc34)CC2)CC1 [(-)-817569]
17 | 74 nM | O=C(CCCCN1CCN(c2csc3cc(F)ccc23)CC1)Nc1ccc(F)cc1 [compound 813384]
18 | 39.6 nM | CCCN(C(=O)CCCCN1CCN(c2csc3cc(F)ccc23)CC1)c1ccc(F)cc1 [compound 814648]
19 | 38.9 nM | O=C(CCCCN1CCN(c2csc3cc(F)ccc23)CC1)N(Cc1ccccc1)c1ccc(F)cc1 [compound 814649]
20 | 5 nM | C[C@H]1CC[C@H](NC(=O)[C@@H]2C[C@H]2CN2CCN(c3csc4cc(C(F)(F)F)ccc34)CC2)CC1 [compound 815916]
21 | 18 nM | CCOC(=O)[C@H]1CC[C@H](NC(=O)[C@@H]2C[C@H]2CN2CCN(c3csc4cc(C(F)(F)F)ccc34)CC2)CC1 [compound 815917]
22 | 15 nM | CC[C@H]1CC[C@H](NC(=O)[C@@H]2C[C@H]2CN2CCN(c3csc4cc(C(F)(F)F)ccc34)CC2)CC1 [compound 815918]
23 | 0.98 nM | CC1CCC(NC(=O)C2CC2CN2CCN(c3cccc(Cl)c3Cl)CC2)CC1 (stereo not drawn) [compound 817037]
24 | 0.952 nM | COc1ccc(Cl)cc1N1CCN(CC2CC2C(=O)NC2CCC(C)CC2)CC1 (stereo not drawn) [compound 817038]
25 | 14.8 nM | CC1CCC(NC(=O)C2CC2CN2CCN(c3ccc(C(F)(F)F)cc3)CC2)CC1 (stereo not drawn) [compound 817039]

same assay, conditions: d3Ki, Table 2; unit inferred

Row | Structure (SMILES) | Ki
26 | C[C@H]1CC[C@H](NC(=O)[C@@H]2C[C@H]2CN2CCN(c3noc4ccsc34)CC2)CC1 [817892A] | 3.02 nM

same assay, conditions: read-out: D3 Ki

Row | Ki | Structure (SMILES)
27 | 34.7 nM | CN1CCCC1CCNC(=O)[C@@H]1C[C@H]1CN1CCC(c2noc3ccsc23)CC1 (mixture of isomers) [compound 831936]
28 | 30.6 nM | CC(C)(C)OC(=O)N1CCCC(CNC(=O)[C@@H]2C[C@H]2CN2CCC(c3noc4ccsc34)CC2)C1 (mixture of isomers) [compound 833374]
29 | 3.31 nM | O=C(NCC1CCCNC1)[C@@H]1C[C@H]1CN1CCC(c2noc3ccsc23)CC1 (mixture of isomers) [compound 833385]
30 | 0.454 nM | C[C@H]1CC[C@H](NC(=O)[C@@H]2C[C@H]2CN2CCC(c3cc4ccccc4s3)CC2)CC1 (relative stereo) [compound 831148, 2R-(4-Benzo[b]thiophen-2-yl-piperidin-1-ylmethyl)-1R-cyclopranecarboxylic acid (trans-4-methyl-cyclohexyl)-amide]
31 | 79.1 nM | COCCN1CCN(C(=O)[C@@H]2C[C@H]2CN2CCN(c3nn(C)c4ccc(OC)cc34)CC2)CC1 [832748FH]
32 | 30.2 nM | O=C(NCCCN1CCCCC1)[C@@H]1C[C@H]1CN1CCN(c2nn(-c3ccc(C(F)(F)F)cc3)c3ccsc23)CC1 [A002201942]
33 | 47.3 nM | Cn1nc(N2CCN(C[C@@H]3C[C@H]3C(=O)NCCCN3CCOCC3)CC2)c2sccc21 [A002202402]
34 | 137 nM | O=C(NCCCN1CCCCC1)[C@@H]1C[C@H]1CN1CCC(c2nn(CC(F)(F)F)c3ccsc23)CC1 [A002328969]
35 | 36.2 nM | O=C([C@@H]1C[C@H]1CN1CCC(c2nn(CC(F)(F)F)c3ccsc23)CC1)N1CCC(Cn2ccnc2)CC1 [A002328970]
36 | 81.2 nM | Cn1nc(N2CCN(C[C@@H]3C[C@H]3C(=O)NCCCN3CCSCC3)CC2)c2sccc21 [A002350370]
37 | 129 nM | Cn1nc(C2CCN(C[C@@H]3C[C@H]3C(=O)N3CCC(Cn4ccnc4)CC3)CC2)c2sccc21 [A002436292]
38 | 11 nM | O=C(NC1CCN(Cc2ccc(F)c(F)c2)CC1)[C@@H]1C[C@H]1CN1CCN(c2nn(-c3ccc(OC(F)(F)F)cc3)c3ccsc23)CC1 [A002437083]
39 | 16.2 nM | O=C(NCCCn1ccnc1)[C@@H]1C[C@H]1CN1CCN(c2nc3cccc4c3n2CCC4)CC1 [A002437350]
40 | 552 nM | CN1CCN(CCCNC(=O)[C@@H]2C[C@H]2CN2CCN(c3nc4cccc5c4n3CCC5)CC2)CC1 [A002439100]
41 | 55.3 nM | CC(C)(C)OC(=O)N1CCC(CNC(=O)[C@@H]2C[C@H]2CN2CCC(c3noc4c(C(F)(F)F)cccc34)CC2)CC1 [A002439261]
42 | 88 nM | CN1CCN(CCCNC(=O)[C@@H]2C[C@H]2CN2CCC(c3nn(CC(F)(F)F)c4ccsc34)CC2)CC1 [A002439265]

Row | Structure (SMILES) | Ki
43 | Cn1nc(C2CCN(C[C@@H]3C[C@H]3C(=O)NCCCN3CCCCC3)CC2)c2cccc(C(F)(F)F)c21 [A002329092] | 321 nM
44 | Cn1nc(C2CCN(C[C@@H]3C[C@H]3C(=O)NCCCn3ccnc3)CC2)c2cccc(C(F)(F)F)c21 [A002329093] | 411 nM

same assay, conditions: read-out: d3Ki

Row | Ki | Structure (SMILES)
45 | 89.7 nM | O=C(N[C@H]1CC[C@H](C(=O)O)CC1)[C@@H]1C[C@H]1CN1CCN(c2csc3cc(C(F)(F)F)ccc23)CC1 [816078A]
46 | 32.5 nM | O=C(NCc1nc2ccccc2[nH]1)[C@@H]1CCC[C@H]1N1CCN(c2csc3cc(F)ccc23)CC1 [825826G]
47 | 40.1 nM | O=C(NCC1CC1)[C@@H]1CCC[C@H]1N1CCN(c2csc3cc(F)ccc23)CC1 [825829G]
48 | 6.9 nM | O=C(NCc1cccnc1)[C@@H]1CCC[C@H]1N1CCN(c2csc3cc(F)ccc23)CC1 [825834G]
49 | 11 nM | O=C(N[C@H]1CC[C@H](O)CC1)[C@@H]1C[C@H]1CN1CCN(c2csc3cc(C(F)(F)F)ccc23)CC1 [compound 816592]
50 | 7.47 nM | O=C(NC1CCC(CO)CC1)C1CC1CN1CCN(c2csc3cc(C(F)(F)F)ccc23)CC1 (stereo not drawn) [compound 816593]

same assay, conditions: the 17th table; read-out: D3 Ki

Row | Ki | Structure (SMILES)
51 | 154 nM | C[C@H]1CC[C@H](N2CC(CN3CCN(c4noc5ccsc45)CC3)CC2=O)CC1 (stereo partly drawn) [832831 DA]
